Experimental data: US20230295162A1 (EÖTVÖS LORÁND TUDOMÁNYEGYETEM, priority 2020, published 2023)
Where two headings read alike, the source gives them in different places.

How the values were obtained:
[1] = test system: PANC-1 (human pancreatic carcinoma) cells; assay: Impedance-based viability assay (xCELLigence SP), long treatment; format: cell-based; settings: 72 h, read-out: cytotoxicity expressed in IC50, PANC-1
Excerpt: (Gibco®/Invitrogen Corporation, New York, NY, USA).
Data obtained from each experiment represent mathematical averages.

[2] = test system: Panc1 pancreatic cancer cell line; assay: CellTiter-Glo IC50 (Example 19); format: cell-based; settings: Homo sapiens, PANC-1, 72 h
Procedure, shortened: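 Following treatment of 1000-cell/well cultures at 37° C, 5% CO2, CellTiter-Glo replaced the medium and luminescence was recorded. Data normalised to untreated controls; IC50 by variable-slope regression.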

Detroit 562 cell line = assay: Additional in vitro IC50 tests (Table 3); format: cell-based; settings: Homo sapiens
Procedure, shortened: (§1)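 Cells at 1000/well, viability by CellTiter-Glo luminescence after compound treatment, as % of untreated control. IC50 from variable-slope log(inhibitor) vs response nonlinear regression.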

EBC-1 cell line = assay: Additional in vitro IC50 tests (Table 3); format: cell-based; settings: Homo sapiens
Procedure, shortened: as §1

Fadu cell line = assay: Additional in vitro IC50 tests (Table 3); format: cell-based; settings: Homo sapiens
Procedure, shortened: as §1

H2228 cell line = assay: Additional in vitro IC50 tests (Table 3); format: cell-based; settings: Homo sapiens, NCI-H2228
Procedure, shortened: as §1

SCC-25 cell line = assay: Additional in vitro IC50 tests (Table 3); format: cell-based; settings: Homo sapiens
Procedure, shortened: as §1

[3] = test system: Capan-1 (pancreas, adenocarcinoma) cells; assay: Cell viability assay, CellTiter-Glo (Example 21); format: cell-based, human; settings: 72 h treatment
Procedure, shortened: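 Capan-1 cells were seeded at 1000 cells/well in flat-bottomed white 96 well plates (BRANDplates®), with density optimized for cell size and growth rate. Following compound treatment, viability was measured with the CellTiter-Glo® luminescent assay (Promega) per the manufacturer's instructions, reading luminescence on a BioTek Synergy 2 Multi-Mode Reader.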

[4] = test system: DU 145 (prostate, carcinoma) cells; assay: Cell viability assay, CellTiter-Glo (Example 21); format: cell-based, human; settings: 72 h
Procedure, shortened: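 DU 145 cancer cell viability was assessed with the CellTiter-Glo® luminescent assay (Promega, Madison, WI, USA), following the manufacturer's instructions. Cells were seeded at 1000 cells/well in flat-bottomed white 96 well plates, and after treatment luminescence was read on a BioTek Synergy 2 Multi-Mode Reader.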

[5] = test system: Detroit 562 (pharynx, carcinoma) cells; assay: Cell viability assay, CellTiter-Glo (Example 21); format: cell-based, human; settings: 72 h treatment
Procedure, shortened: (§2)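 Seeding density per line: Panc-1 750, FaDu 1000, Detroit 562 and MDA-MB-453 1500 cells/well. Viability after treatment read by CellTiter-Glo luminescence; dose-response curves fitted by four-parameter variable-slope non-linear regression.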

[6] = test system: EBC-1 (lung, squamous cell carcinoma) cells; assay: Cell viability assay, CellTiter-Glo (Example 21); format: cell-based, human; settings: 72 h treatment
Procedure, shortened: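 EBC-1 lung squamous cell carcinoma cells were seeded at 1000 cells/well in flat-bottomed white 96 well plates. After compound treatment, viability was measured with the CellTiter-Glo luminescent assay following the manufacturer's instructions, and luminescence was read on a BioTek Synergy 2 Multi-Mode microplate reader.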

[7] = test system: FaDu (pharynx, squamous cell carcinoma) cells; assay: Cell viability assay, CellTiter-Glo (Example 21); format: cell-based, human; settings: 72 h treatment
Procedure, shortened: as §2

[8] = test system: LNCaP (prostate, carcinoma) cells; assay: Cell viability assay, CellTiter-Glo (Example 21); format: cell-based, human; settings: 72 h
Procedure, shortened: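 LNCaP prostate carcinoma cell viability was assessed with the CellTiter-Glo® luminescent assay (Promega), following the manufacturer's instructions. Cells were seeded at 1500 cells/well into flat-bottomed white 96 well plates, treated, and then luminescence was read on a BioTek Synergy 2 Multi-Mode Reader. Dose-response curves were fitted in GraphPad Prism 8.4.2 by four-parameter variable-slope non-linear regression.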

[9] = test system: MDA-MB-231 (breast, adenocarcinoma) cells; assay: Cell viability assay, CellTiter-Glo (Example 21); format: cell-based, human; settings: 72 h treatment
Procedure, shortened: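 MDA-MB-231 breast adenocarcinoma cells were seeded at 1500 cells/well in flat-bottomed white 96 well plates (BRANDplates®, cat. no.: 781965). Following compound exposure, viability was assessed with the CellTiter-Glo® luminescent assay (Promega) following the manufacturer's protocol, and luminescence was read on a BioTek Synergy 2 Multi-Mode Reader.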

[10] = test system: MDA-MB-453 (breast, carcinoma) cells; assay: Cell viability assay, CellTiter-Glo (Example 21); format: cell-based, human; settings: 72 h treatment
Procedure, shortened: as §2

[11] = test system: MIA PaCa-2 (pancreas, carcinoma) cells; assay: Cell viability assay, CellTiter-Glo (Example 21); format: cell-based, human; settings: 72 h treatment
Procedure, shortened: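 MIA PaCa-2 pancreatic carcinoma cells were seeded at 1000 cells/well in flat-bottomed white 96 well plates (BRANDplates®, cat. no.: 781965) and treated with compound. Viability was then determined with the CellTiter-Glo® luminescent cell viability assay (Promega) following the manufacturer's instructions, with luminescence read on a BioTek Synergy 2 Multi-Mode Reader.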

[12] = test system: PC-3 (prostate, adenocarcinoma) cells; assay: Cell viability assay, CellTiter-Glo (Example 21); format: cell-based, human; settings: 72 h treatment
Procedure, shortened: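 PC-3 prostate adenocarcinoma cells were seeded at 1000 cells/well in flat-bottomed white 96 well plates and treated with compounds. Viability was then determined with the CellTiter-Glo® luminescent assay (Promega) following the manufacturer's instructions, with luminescence read on a BioTek Synergy 2 Multi-Mode Reader.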

[13] = test system: Panc-1 (pancreas, carcinoma) cells; assay: Cell viability assay, CellTiter-Glo (Example 21); format: cell-based, human; settings: 72 h treatment
Procedure, shortened: as §2

[14] = test system: SCC-25 (tongue, squamous cell carcinoma) cells; assay: Cell viability assay, CellTiter-Glo (Example 21); format: cell-based, human; settings: 72 h treatment
Procedure, shortened: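 SCC-25 tongue squamous cell carcinoma cells were seeded at 1000 cells/well in flat-bottomed white 96 well plates, treated with compound, and viability was then determined with the CellTiter-Glo luminescent assay (Promega) following the manufacturer's instructions. Luminescence was read on a BioTek Synergy 2 Multi-Mode Reader.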

Panc-1 human cell line = assay: Cytotoxicity on Panc-1, xCELLigence SP, IC50 after 24 h, 48 h, 72 h and 96 h (Example 22)

O=C1C2=C(CCN(Cc3cc(F)cc(F)c3)C2)N2CCN=C2N1Cc1ccc(F)cc1 [I/7, 4-(4-Fluorobenzyl)-7-(3,5-difluorobenzyl)-2,4,6,7,8,9-hexahydroimidazo[1,2-a]pyrido[3,4-e]pyrimidin-5(1H)-one]
IC50 [1]: 8 nM | IC50 [2]: 11 nM | IC50 (Detroit 562 cell line): 3 nM | IC50 (EBC-1 cell line): 9 nM | IC50 (Fadu cell line): 10 nM | IC50 (H2228 cell line): 10 nM | IC50 (SCC-25 cell line): 13 nM | Capan-1 (pancreas, adenocarcinoma) cell viability (% of control) ([3]; 3.7 nM): 101.9 ± 3.8 % of control | Capan-1 (pancreas, adenocarcinoma) cell viability (% of control) ([3]; 11.1 nM): 46.0 ± 7.5 % of control | Capan-1 (pancreas, adenocarcinoma) cell viability (% of control) ([3]; 100 nM): 36.1 ± 2.8 % of control | Capan-1 (pancreas, adenocarcinoma) cell viability (% of control) ([3]; 300 nM): 35.5 ± 3.3 % of control | DU 145 cell viability ([4]; 3.7 nM): 64.1 ± 8.0 % of control | DU 145 cell viability ([4]; 11.1 nM): 7.5 ± 0.6 % of control | DU 145 cell viability ([4]; 100 nM): 7.2 ± 2.3 % of control | DU 145 cell viability ([4]; 300 nM): 8.5 ± 2.4 % of control | Detroit 562 (pharynx, carcinoma) cell viability (% of control) ([5]; 3.7 nM): 35.1 ± 5.8 % of control | Detroit 562 (pharynx, carcinoma) cell viability (% of control) ([5]; 11.1 nM): 28.4 ± 4.2 % of control | Detroit 562 (pharynx, carcinoma) cell viability (% of control) ([5]; 100 nM): 28.6 ± 13.6 % of control | Detroit 562 (pharynx, carcinoma) cell viability (% of control) ([5]; 300 nM): 33.0 ± 4.8 % of control | EBC-1 (lung, squamous cell carcinoma) cell viability (% of control) ([6]; 3.7 nM): 79.8 ± 4.1 % of control | EBC-1 (lung, squamous cell carcinoma) cell viability (% of control) ([6]; 11.1 nM): 25.6 ± 0.1 % of control | EBC-1 (lung, squamous cell carcinoma) cell viability (% of control) ([6]; 100 nM): 23.2 ± 0.9 % of control | EBC-1 (lung, squamous cell carcinoma) cell viability (% of control) ([6]; 300 nM): 23.8 ± 0.6 % of control | FaDu (pharynx, squamous cell carcinoma) cell viability (% of control) ([7]; 3.7 nM): 80.1 ± 13.3 % of control | FaDu (pharynx, squamous cell carcinoma) cell viability (% of control) ([7]; 11.1 nM): 29.1 ± 5.6 % of control | FaDu (pharynx, squamous cell carcinoma) cell viability (% of control) ([7]; 100 nM): 24.0 ± 3.8 % of control | FaDu (pharynx, squamous cell carcinoma) cell viability (% of control) ([7]; 300 nM): 26.1 ± 4.5 % of control | LNCaP cell viability ([8]; 3.7 nM): 45.6 ± 7.0 % of control | LNCaP cell viability ([8]; 11.1 nM): 17.2 ± 1.9 % of control | LNCaP cell viability ([8]; 100 nM): 13.1 ± 0.8 % of control | LNCaP cell viability ([8]; 300 nM): 13.9 ± 1.0 % of control | MDA-MB-231 (breast, adenocarcinoma) cell viability (% of control) ([9]; 3.7 nM): 99.6 ± 2.2 % of control | MDA-MB-231 (breast, adenocarcinoma) cell viability (% of control) ([9]; 11.1 nM): 63.6 ± 4.4 % of control | MDA-MB-231 (breast, adenocarcinoma) cell viability (% of control) ([9]; 100 nM): 58.6 ± 3.0 % of control | MDA-MB-231 (breast, adenocarcinoma) cell viability (% of control) ([9]; 300 nM): 59.4 ± 3.0 % of control | MDA-MB-453 (breast, carcinoma) cell viability (% of control) ([10]; 3.7 nM): 55.8 ± 6.5 % of control | MDA-MB-453 (breast, carcinoma) cell viability (% of control) ([10]; 11.1 nM): 35.8 ± 1.3 % of control | MDA-MB-453 (breast, carcinoma) cell viability (% of control) ([10]; 100 nM): 33.1 ± 1.1 % of control | MDA-MB-453 (breast, carcinoma) cell viability (% of control) ([10]; 300 nM): 31.6 ± 0.9 % of control | MIA PaCa-2 (pancreas, carcinoma) cell viability (% of control) ([11]; 3.7 nM): 87.4 ± 12.0 % of control | MIA PaCa-2 (pancreas, carcinoma) cell viability (% of control) ([11]; 11.1 nM): 23.1 ± 6.3 % of control | MIA PaCa-2 (pancreas, carcinoma) cell viability (% of control) ([11]; 100 nM): 18.5 ± 6.8 % of control | MIA PaCa-2 (pancreas, carcinoma) cell viability (% of control) ([11]; 300 nM): 19.8 ± 8.6 % of control | PC-3 (prostate, adenocarcinoma) cell viability (% of control) ([12]; 3.7 nM): 82.1 ± 1.6 % of control | PC-3 (prostate, adenocarcinoma) cell viability (% of control) ([12]; 11.1 nM): 38.9 ± 2.1 % of control | PC-3 (prostate, adenocarcinoma) cell viability (% of control) ([12]; 100 nM): 34.6 ± 3.0 % of control | PC-3 (prostate, adenocarcinoma) cell viability (% of control) ([12]; 300 nM): 34.3 ± 3.4 % of control | Panc-1 (pancreas, carcinoma) cell viability (% of control) ([13]; 3.7 nM): 108.6 ± 7.6 % of control | Panc-1 (pancreas, carcinoma) cell viability (% of control) ([13]; 11.1 nM): 61.1 ± 3.4 % of control | Panc-1 (pancreas, carcinoma) cell viability (% of control) ([13]; 100 nM): 60.0 ± 3.6 % of control | Panc-1 (pancreas, carcinoma) cell viability (% of control) ([13]; 300 nM): 53.5 ± 0.6 % of control | SCC-25 (tongue, squamous cell carcinoma) cell viability (% of control) ([14]; 3.7 nM): 88.7 ± 5.6 % of control | SCC-25 (tongue, squamous cell carcinoma) cell viability (% of control) ([14]; 11.1 nM): 45.1 ± 4.7 % of control | SCC-25 (tongue, squamous cell carcinoma) cell viability (% of control) ([14]; 100 nM): 35.1 ± 2.2 % of control | SCC-25 (tongue, squamous cell carcinoma) cell viability (% of control) ([14]; 300 nM): 39.7 ± 2.7 % of control | IC50 (Panc-1 human cell line; PANC-1, 72 h, read-out: IC50 (72 h) [nM]): 27.3 ± 15.4 nM | IC50 (Panc-1 human cell line; PANC-1, 96 h, read-out: IC50 (96 h) [nM]): 22.1 ± 5.98 nM
